Read-outs that look alike come from different tables or passages of the source.
How the values were obtained:
[1] = test system: H-Ras processing; test: Ras processing assay in H-RasF cells (NIH 3T3 transformed with oncogenic H-Ras-CVLS), immunoblot; format: cell-based; conditions: for IC50: whole cells
Experimental: (§1) H-RasF cells (45) were seeded on day 0 in 100 mm Dishes (costar) in Dulbecco's modified Eagles medium (GIBCO) and allowed to grow to 40-60% confluency. […] On day 3, cells were washed one time with ice cold PBS and were collected and lysed by incubation for 30-60 min on ice in lysis buffer (41). Lysates were cleared (14,000 rpm, 4° C., 15 min) and supernatants collected. Equal amounts of lysate were separated on a 12.5% SDS-PAGE, transfered to nitrocellulose, and a western blot performed using a anti-Ras antibody (Y13-238, ATCC) or anti-Rap1A antibody (Santa Cruz Biotechnology, Santa Cruz, Calif.). Antibody reactions were visualized using peroxidase-conjugated goat anti-rat IgG for Y13-238 and peroxidase-conjugated goat anti-rabbit IgG for Rap1A and an enhanced chemiluminescence detection system (ECL; Amersham Corp.)
(§2) H-Ras cells (45) and K-Ras4B Cells (32) were kind gifts from Dr. Channing Der and Dr. Adrienne Cox (University of North Carolina, Chapel Hill). Means of obtaining these cell lines will be easily recognized by the skilled practitioner. Cells were seeded on day 0 in 100 mm dishes in Dulbecco's modified Eagles medium supplemented with 10% calf serum and 1% penicillin-streptomycin. […] On day 3, cells were washed and lysed in lysis buffer containing 50 mM HEPES, pH 7.5, 10 mM NaCl, 1% TX-100, 10% glycerol, 5 mM MgCl2, 1 mM EGTA, 25 μg/ml leupeptin, 2 mM PMSF, 2 mM Na3 VO4, 1 mg/ml soybean trypsin inhibitor, 10 μg/ml aprotinin, 6.4 mg/ml Sigma-104® phosphatase substrate. Lysates were cleared (14,000 rpm, 4° C., 15 min) and equal amounts of protein were separated on a 12.5% SDS-PAGE, transferred to nitrocellulose, and immunoblotted using an anti-Ras antibody (Y13-259, ATCC) or an anti-RapIA antibody (SC-65, Santa Cruz Biotechnology, Santa Cruz, Calif.). Antibody reactions were visualized using either peroxidase-conjugated goat anti-rat 1 gG (for Y13-259), or peroxidase-conjugated goat anti-rabbit 1 gG (for Rap1A) and an enhanced chemiluminescence detection (ECL, Amersham Corp.), as described previously (41).

[2] = test system: Rap1A processing; test: Rap1A processing assay in NIH 3T3 cells overexpressing oncogenic H-Ras, immunoblot; format: cell-based; conditions: for IC50: whole cells
Experimental: as §1, §2

[3] = test system: K-Ras4B processing; test: K-Ras4B processing assay in NIH 3T3 cells overexpressing oncogenic K-Ras4B; format: cell-based; conditions: whole cells
Text: H-Ras cells (45) and K-Ras4B Cells (32) were kind gifts from Dr. Channing Der and Dr. Adrienne Cox (University of North Carolina, Chapel Hill). Means of obtaining these cell lines will be easily recognized by the skilled practitioner.

[4] = test system: RasGG processing; conditions: 5 μM, FIG. 2B
Experimental: as §1

[5] = test system: endogenous Ras processing; conditions: 5 μM, pZIPneo and Raf cells
Experimental: as §1

[6] = test system: oncogenic H-Ras activation of MAPK; test: Oncogenic H-Ras activation of MAP kinase, immunoblot; format: cell-based; conditions: H-RasF cells
Text: (§3) Equal amounts of protein were separated on a 15% SDS-PAGE, transferred to nitrocellulose, and immunoblotted using an anti-MAP kinase antibody (erk2, monoclonal, UB1, Lake Placid, N.Y.). Antibody reactions were visualized using peroxidase-conjugated donkey anti-mouse IgG (Jackson ImmunoResearch Laboratories Inc., West Grove, Pa.) and an enhanced chemiluminescence detection system (ECL, Amersham Corp.)

[7] = test system: oncogenic K-Ras4B activation of MAP kinase; test: Oncogenic K-Ras4B activation of MAP kinase, immunoblot; format: cell-based; conditions: 0-30 μM tested
Text: as §3

[8] = test system: H-RasF transformed NIH 3T3 cells; conditions: 50 mg/kg once daily
Experimental: A. Antitumor efficacy was carried out as described in FIG. 3 except that animals were randomly assigned to four groups each of 4 mice each (2 tumors per mouse). […] B. Ras processing was carried out 5 hours after the last treatement on day 17. Tumors were extracted from the animals, tissumized, and lysed in lysis buffer as described in FIG. 1. Lysates (25 μg) were electrophoresed on a 12.5% SDS-PAGE and immunoblotted with anti-Ras antibody Y13-238 as described previously. The blots were then reprobed with anti-Rap1A antibody (Santa Cruze Biotechnologies, Santa Cruz, Calif.).
The tumor sizes at the end of 17 days were 2490 mm^3 for saline, 1793 mm^3 for 10 mg/kg, 1226 mm^3 for 50 mg/kg and 624 mm^3 for 100 mg/kg treated animals. […] Tumors from control animals contained only fully processed Ras which migrates faster in SDS-PAGE gels (FIG. 11B). […] Thus, the extent of tumor growth inhibition correlated with the extent of inhibition of Ras processing.

[9] = test system: Ras/Raf complexes; conditions: 5 μM, H-RasF cells
Experimental: Cells were seeded on day 0 in 100 mm dishes in 10 ml Dulbecco's Modified Eagles Medium (GIBCO) supplemented with 10% calf serum (Hyclone) and 1% pen/strep (GIBCO). […] On day 3, cells were collected by centrifugation in ice cold PBS. Cell pellets were then resuspended in ice cold hypotonic buffer (10 mM Tris, pH 7.5, 5 mM MgCl2, 1 mM DTT, 1 mM PMSF) and cells were sonicated to break up cell pellet to promote separation of cytosol and membrane. The cell suspension was then centrifuged at 2,000 rpm for 10 min to clear debris after which the supernatant was loaded in ultrocentrifuge tubes and spun for 30 min at 100,000×g to SW Ti55 Rotor to separate membrane and cytosol fractions. The cytosol and membrane fractions were lysed on ice for 60 min in buffer containing 30 mM HEPES, pH 7.5, 1% TX-100, 10% glycerol, 10 mM NaCl, 5 mM MgCl2, 2 mM Na3 VO4, 25 mM NaF, 1 mM EGTA, 10 μM soybean trypsin inhibitor, 25 μg/ml leupeptin, 10 μg/ml aprotinin, 2 mM PMSF). The lysates were clarified by centrifugation. Equal amounts of cytosol and membrane fractions were immunoprecipitated using 50 μl of a 25% Protein-A Sepharose Cl-4B suspension (Sigma) with 1 μf/ml anti-c-Raf-1 (SC133, Santa Cruz Biotechnology, Santa Cruz, Calif.). The samples were tumbled at 4° C. for 60 min and then washed 5 times in 50 mM HEPES, pH 7.5, 100 mM NaCl, 5 mM MgCl2, 0.1% TX-100, 10% glycerol, 20 mM NaF. […]

[10] = test system: Raf-1 kinase; conditions: H-RasF cells
Experimental: Raf-1 kinase was assayed by determining the ability of Raf to transfer phosphate from [γ-^32 P] ATP to a 19-mer peptide containing an autophosphorylation site. Membrane and cytosol fraction isolation and Raf immunoprecipitates were washed three times with cold HEPES buffer and twice with kinase buffer (50 mM Tris, pH 7.5, 150 mM NaCl, 12 mM MnCl2, 1 mM DTT, 0.2% Tween 20. Immune complex kinase assays were performed by incubating immunoprecipitaes from membrane and cytosol fractions in 96 μl of kinase buffer with 20 μCi of [γ-^32 P]ATP (10 mCi/ml, Amersham) and 2 μl of the Raf-1 substrate peptide (1 mg/ml, Promega) for 30 min at 25° C. The sequence of the Raf-1 substrate peptide is [sequence]. The phosphorylation reaction was terminated by spotting 50 μl aliquots of the assay mixture onto Whatman P81 for 40 min in 0.5% orthophosphoric acid and air dried. The amount of ^32 P incorporated was determined by liquid scintillation counting.

[11] = test system: oncogenic Raf activation of MAPK; conditions: 5 μM, FIG. 5B
[12] = test system: Raf-transformed NIH 3T3 cells; conditions: 50 mg/kg once daily

- IC50 ([1]; Table 5, read-out: In Vivo Processing IC50 H-Ras): 0.1 µM
- IC50 ([1]; read-out: H-Ras processing IC50): 0.1 µM
- IC50 ([2]; Table 5, read-out: In Vivo Processing IC50 Rap1A): 50 µM
- IC50 ([2]; read-out: Rap1A processing IC50): 50 µM
- IC50 ([3]; Table 5, read-out: In Vivo Processing IC50 K-Ras): 10 µM
- IC50 ([3]; read-out: K-Ras4B processing IC50): 10 µM
- lowest effective concentration, inhibition of oncogenic Ras activation of MAPK [6]: 300 nM
- lowest concentration inhibiting K-Ras4B MAP kinase activation [7]: 30 µM
- oncogenic Ras-F induced activation of Raf kinase in the plasma membrane [10]: suppressed this activation
SMILES: COC(=O)[C@H](CCSC)NC(=O)c1ccc(NC[C@@H](N)CS)cc1-c1ccccc1 [FTI-277, 4-N-[2(R)-Amino-3-mercaptopropyl]amino-2-phenylbenzoyl methionine methyl ester]
- processing of RasF ([1]; 5 μM, FIG. 2B): completely blocked
- concentration at which Ras processing was blocked ([1]; H-RasF cells): 1 µM
- inhibition of processing of geranylgeranylated Rap1A ([2]; concentrations as high as 10 μM): did not inhbit processing
- processing of RasGG [4]: not affected
- processing of endogenous Ras [5]: blocked
- tumor growth of H-RasF transformed NIH 3T3 cells [8]: inhibited tumor growth
- Ras/Raf association in membrane and cytosolic fractions [9]: accumulation of Ras/Raf complexes in the cytosolic but not membrane fractions
- block of oncogenic Raf activation of MAPK [11]: not blocked
- growth of Raf-transformed NIH 3T3 cells [12]: had no effect

Reference: patent publication US5965539A, “Inhibitors of prenyl transferases” (Univeristy of Pittsburgh, priority 1996, dated 1999)
